Results on 5 compounds are retold here after patent publication US7258981B2, “Sensitive proteasome sensor constructs and methods for their design and use” (Clontech Laboratories, Inc., priority 2003, dated 2007).

In test [1] the test system is proteasome. The experiment in a line: Stable HEK 293 clone expressing ZsGreend410, fluorescence with or without ALLN. In kind it is cell-based.
Test [2] deals with proteasome. The experiment in a line: HEK 293 cells transiently transfected with ZsGreen constructs, MFI by flow cytometry. It is filed as cell-based. The conditions noted are these: HEK 293, transient transfection. The method, then: (FIGS. 2A&B) To establish if the above proteins are substrate for degradation by the proteasome, HEK 293 cells were transiently transfected with the plasmids and the mean fluorescence intensity (MFI) of the cells was measured by flow cytometry 16 hours after transfection. […] To distinguish between these two possibilities, the transiently transfected cells were treated with ALLN, a well-characterized reversible inhibitor of proteasomal degradation.

In test [3] the test system is proteasome. The experiment in a line: Inventive proteasome sensor sensitivity (detection of proteasome inhibitors). In kind it is cell-based. Particulars: six hour after treatment as benchmark; broadest stated range.
Source text: In determining sensitivity of his system, in the present application six hour after treating a cell with a proteasome modifying treatment is employed as a benchmark for sensitivity.
The subject of test [4] is proteasome. Particulars: GFP-CL1 fusion; flow cytometry; cited from earlier work.
For test [5], the system named is proteasome. The conditions noted are these: GFP-MODC fragment fusion; at 20 hours; flow cytometry; cited from earlier work.
In test [6] the test system is proteasome. The conditions noted are these: GFP-Ubiquitin fusion; at 15 hours; flow cytometry (FACS); cited from earlier work.

Read-outs that look alike come from different tables or passages of the source. Square brackets hold non-standard residues; d marks the D form. Peptide text beside a SMILES is read from it. * marks the point of attachment. Nle = CCCC[C@H](N)C(=O)O; Cbz = O=C(OCc1ccccc1)*

With `CCCC[C@@H](C=O)NC(=O)[C@H](CC(C)C)NC(=O)[C@H](CC(C)C)NC(C)=O` [ALLN] (Ac-Leu-Leu-[Nle]-aldehyde), the “delay before the appearance of fluorescence” value in test [1] (ZsGreend410-expressing clone, stable transfection) came to 3 h. The “effect of treatment on fluorescence of cells stably expressing ZsGreend410” value in test [1] (stable HEK 293 clone) is “sharply increases”. In test [2], the “effect of treatment on fluorescence of ZsGreen expressing cells” value was “only marginally increases”; the “effect of treatment on fluorescence of pZsGreendl and pZsGreend410-transfected cells” value is on record as “increased in a time-dependent fashion”. The “detection level of inhibitor by the inventive sensor” value (from here on “detection level of inhibitor”) in test [3] was in the range of 50 to 2500 nM.

For `CC[C@H](C)[C@H](NC(=O)[C@H]([C@@H](C)CC)N(C)C(C)=O)C(=O)N[C@H](C(=O)N[C@@H](CC(C)C)C(=O)[C@@]1(C)CO1)[C@@H](C)O` [Epoxomycin], the “detection level of inhibitor” value in test [3] was 1 to 30 nM.

With `CC(=O)N[C@@H](CSC(=O)[C@]1([C@@H](O)C(C)C)NC(=O)[C@H](C)[C@@H]1O)C(=O)O` [Lactacystin], the “sensitivity achieved (inhibitor concentration)” value in test [4] was 845 nM; in test [5] it was 2.5 µM. The “detection level of inhibitor” value in test [3] was 10 to 500 nM.

Take `CC(C)C[C@@H](C=O)NC(=O)[C@H](CC(C)C)NC(=O)[C@H](CC(C)C)NC(=O)OCc1ccccc1` [MG132] (Cbz-Leu-Leu-Leu-aldehyde): in test [5], the “sensitivity achieved (inhibitor concentration)” value was 2.5 µM.

Take `CC(C)C[C@@H](/C=C/S(C)(=O)=O)NC(=O)[C@H](CC(C)C)NC(=O)[C@H](CC(C)C)NC(=O)OCc1ccccc1` [Z-L3-VS]: the “sensitivity achieved (inhibitor concentration)” value in test [6] was 4 µM.
